For data set [1], the system named is Staphylococcus aureus MRSA (DSM 11822, ICB 25701). Kind of data set: MIC broth dilution, aerobic bacteria. The settings on record: 20 h at 37 °C, ± standard error, n ≥ 3. Type of data set: cell-based. Here is the method: (§1) The following strains were used and maintained at 37 °C in MHB (21 g/L Müller Hinton, pH 7.4) or TSY (30 g/L trypticase soy broth, 3 g/L yeast extract, pH 7.0–7.2) medium. Acinetobacter baumannii (DSM 30007, ATCC 19606) in MHB, Escherichia coli (DSM1116, ATCC 9637) in TSY, Klebsiella pneumoniae (DSM 11678, ATCC33495) in MHB, Pseudomonas aeruginosa PA7 (DSM 24068) in MHB, Enterococcus faecium (DSM 20477, ATCC 19434) in TSY, Staphylococcus aureus MRSA (DSM 11822, ICB 25701) in TSY). Minimum inhibitory concentration (MIC) values were determined following a standardized protocol in broth dilution assays. […] Starting inocula of 2–8 × 10^5 colony-forming units per ml in MHB or TSY media at 37 °C were used, and serial dilutions were carried out in 384-well microtiter plates in duplicate. […] The MIC values for the tested compounds were determined in three independent experiments by a curve-fitting procedure using the GraphPad Prism software (Graphpad Software, Inc.).

Data set [2] has as its system Pseudomonas aeruginosa PA7 (DSM 24068). Kind of data set: MIC broth dilution, aerobic bacteria. Type of data set: cell-based. The conditions noted are these: ± standard error, n ≥ 3, read-out: MIC, P.aeruginosa. Here is the method:
as §1
(In general: Dilution methods test growth across graded concentrations, often in twofold steps.)

Data set [3] deals with Acinetobacter baumannii (DSM 30007, ATCC 19606). Kind of data set: MIC broth dilution, aerobic bacteria. Type of data set: cell-based. The settings on record: 20 h at 37 °C, ± standard error, n ≥ 3. Here is the method: as §1
Data set [4] relates to Klebsiella pneumoniae (DSM 11678, ATCC33495). Kind of data set: MIC broth dilution, aerobic bacteria. Type of data set: cell-based. The conditions noted are these: 20 h at 37 °C, ± standard error, n ≥ 3, read-out: MIC, K. pneumoniae. Here is the method: as §1
Data set [5] concerns Escherichia coli (DSM1116, ATCC 9637). Briefly: MIC broth dilution, aerobic bacteria. Type of data set: cell-based. The conditions noted are these: 20 h at 37 °C, ± standard error, n ≥ 3. Here is the method:
as §1

Data set [6] concerns Enterococcus faecium (DSM 20477, ATCC 19434). Briefly: MIC broth dilution, aerobic bacteria. Type of data set: cell-based. The settings on record: 20 h at 37 °C, ± standard error; for MIC: n ≥ 3, read-out: MIC, E. faecium; for MIC, E. faecium: n ≥ 3. Here is the method:
as §1

In data set [7] the test system is HT-29 colon carcinoma cells. Kind of data set: Antiproliferative assay (crystal violet). Type of data set: cell-based, human. The settings on record: 72 h exposure, ± standard deviation, n = 2–4, read-out: IC50, antiproliferative effects, HT-29. Here is the method:
(§2) The antiproliferative effects were determined according to a previously published procedure. A volume of 100 µL of cell suspension of A549 cells, MDA-MB-231, HT-29 or Vero E6 cells was transferred into the wells of a 96-well plates and incubated at 37 °C under 5% CO2 for 72 h. […] The results were calculated as the mean values of three independent experiments, unless stated otherwise.

Data set [8] deals with A-549 lung cancer cells. Kind of data set: Antiproliferative assay (crystal violet). Type of data set: cell-based, human. The conditions noted are these: 72 h exposure, ± standard deviation, n = 2–4, read-out: IC50, antiproliferative effects, A-549. Here is the method: as §2
For data set [9], the system named is MDA-MB-231 breast cancer cells. Kind of data set: Antiproliferative assay (crystal violet). Type of data set: cell-based, human. The settings on record: 96 h exposure, ± standard deviation, n = 2–4, read-out: IC50, antiproliferative effects, MDA-MB-231. Here is the method: as §2
Data set [10] concerns C. difficile strain 1296^ T (DSM 1296), metronidazole-sensitive. Briefly: Antibacterial effects against C. difficile (anaerobic growth curves, OD600). Type of data set: cell-based, Clostridioides difficile. Here is the method:
(§3) (provided by Ulrich Nübel, DSMZ Braunschweig) were maintained in prereduced BHIS medium (37 g/L BHI, oxoid, 5% yeast extract, 1% L-cysteine) in a Coy-Laboratories anaerobic chamber (85% N2, 10% CO2, 5% H2) at 37 °C. Freshly prepared cultures were incubated until the exponential growth phase (OD600 = 0.2–0.4) and were adjusted to 1 × 10^6 cfu/mL before inoculation. The test compounds were dissolved in DMSO and by two-fold dilution steps concentrations in the range from 200 µM to 0.39 µM in BIHS medium were obtained. The solutions (100µL) were added to 100 µL of a diluted C. difficile culture (total volume: 200 µL in BIHS, 5 × 10^5 C. difficile, 100–0.195 µM test compound per well). The OD600-values over a period of 48 h were measured with a LogPhase 600 4-plate reader (BioTek) and compared with blank BHIS.

In data set [11] the test system is C. difficile strain IB136 (NCTC 14385), metronidazole-resistant. The data set is described as above. Type of data set: cell-based, Clostridioides difficile. Here is the method:
as §3

For data set [12], the system named is C. difficile strain VPI10463 (ATCC 43255), metronidazole-sensitive. The description is as above. Type of data set: cell-based, Clostridioides difficile. Here is the method: as §3
Data set [13] concerns aerobic Gram-positive and Gram-negative pathogenic bacteria strains. Briefly: MIC, summary over the panel of aerobic bacteria. The conditions noted are these: aerobic conditions; for MIC values against all bacteria strains: all strains of the panel. Type of data set: cell-based. Here is the method: as §1
In data set [14] the test system is Vero E6 non-tumorigenic epithelial kidney cells. Kind of data set: Antiproliferative assay (crystal violet). Type of data set: cell-based, African green monkey. The conditions noted are these: 72 h exposure, ± standard deviation, n = 2–4, read-out: IC50, antiproliferative effects, Vero E6. Here is the method:
as §2

The test system of data set [15] is A-549, HT-29, MDA-MB-231 and Vero E6 cells. Briefly: Antiproliferative assay, summary over all cell lines. Type of data set: cell-based. The conditions noted are these: for IC50: all four cell lines, for 2c except MDA-MB-231, read-out: IC50 values, antiproliferative effects, all cell lines. Here is the method: as §2
Data set [16] deals with T1, bacterial TrxR from E. coli (Escherichia coli, UniProt P0A9P4).
T1 construct: purchased Sigma-Aldrich
Briefly: Inhibition of bacterial TrxR (E. coli), DTNB/5-TNB assay. The settings on record: purified enzyme, 75 min incubation at 25 °C; means and standard deviations. Type of data set: biochemical. Here is the method: The TrxR (E.coli) inhibition assay was performed according to a previously published procedure. It is partly based on the procedure developed by Lu et al.[35] and detects the formation of 5-TNB (5-thionitrobenzoic acid). Solutions of E. coli TrxR (35.4 U/mL) and of its substrate thioredoxin (Trx) E. coli (156 µg/mL) (both purchased from Sigma-Aldrich and diluted with distilled water) and fresh stock solutions of the test compounds (in DMF) were prepared (1c was administered as suspension). TE buffer (Tris–HCl 50 mM, EDTA 1 mM, pH 7.5) containing graded concentrations of the respective compounds (20 µL) or buffer without compounds (20 µL, as control) were mixed with TrxR solution (10 µL), Trx solution (10 µL), and a solution of NADPH (200 µM) in TE buffer (100 µL) in a well on a 96-well plate. As blank solution, 200 µM NADPH in TE buffer (100 µL) mixed with a DMF/buffer mixture (40 µL) was used (final concentrations of DMF: 0.5% v/v). The solutions on the 96-well plate were incubated for 75 min at 25 °C with moderate shaking. A volume of 100 µL of a reaction mixture (TE buffer containing 200 µM NADPH and 5 mM DTNB) was added to each well to initiate the reaction. After thorough mixing, the formation of 5-TNB was monitored by a microplate reader at 405 nm in 35 s intervals (10 measurements). The values were corrected by subtraction of the values for the blank solution. The increase in concentration of 5-TNB followed a linear trend (r^2 ≥ 0.990) and the enzymatic activities were calculated as the gradients (increase in absorbance per second) thereof. Absence of interference with the assay components was confirmed by a negative control experiment for each test compound. The highest test compound concentration was used and the enzyme solution was replaced by TE buffer for this purpose. The IC50 values were calculated as the concentration of the compound decreasing the enzymatic activity of the positive control by 50% and are presented as the means and standard deviations of independent repeated experiments.

Molecules are shown by their SMILES. Read-outs that look alike come from different tables or passages of the source. A value given as a limit tells only on which side of the number the result lay.

We go through five compounds from paper PMC11343806 (Journal of Biological Inorganic Chemistry, 2024).

T1 sequence (P0A9P4 whole entry): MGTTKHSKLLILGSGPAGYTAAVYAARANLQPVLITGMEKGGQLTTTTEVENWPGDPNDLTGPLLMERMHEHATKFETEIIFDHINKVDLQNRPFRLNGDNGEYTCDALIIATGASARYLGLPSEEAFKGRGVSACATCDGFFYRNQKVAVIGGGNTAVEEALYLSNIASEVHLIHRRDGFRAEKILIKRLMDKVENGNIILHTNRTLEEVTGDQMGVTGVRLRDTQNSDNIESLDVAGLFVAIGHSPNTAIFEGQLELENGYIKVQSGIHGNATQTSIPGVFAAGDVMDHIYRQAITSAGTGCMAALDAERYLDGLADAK

What is called MIC is the lowest concentration found to suppress growth. As usually defined, the IC50 is the point on the concentration scale where inhibition reaches its midpoint. For the compound `Cc1ncc([N+](=O)[O-])n1CCO` [Metronidazole, reference compound], the MIC in [1] (Staphylococcus aureus) is above 350 µM; in [2] (Pseudomonas aeruginosa, DSM24068, 20 h at 37 °C), above 350 µM; in data set [3] (Acinetobacter baumannii), above 350 µM; in data set [4] (Klebsiella pneumoniae), above 350 µM; in data set [5] (Escherichia coli), above 350 µM; in data set [6] (Enterococcus faecium), above 350 µM. The IC50 is above 100 µM in data set [7] (Homo sapiens, HT-29); above 100 µM in data set [8] (Homo sapiens, A549); above 100 µM in data set [9] (Homo sapiens, MDA-MB-231); above 100 µM in data set [14] (Chlorocebus sabaeus, Vero C1008); above 100 µM in data set [15] (Homo sapiens). Moreover, the “antibacterial effect at 6.25 µM” value in data set [10] (strain 1296T, 6.25 µM, recovery of growth after extended exposure) was “effective inhibitors”; in data set [11] (resistant strain IB136, 6.25 µM), “completely inactive”; in data set [12] (strain VPI10463, 6.25 µM, recovery of growth after extended exposure) it was “effective inhibitors”. In addition, the “concentration leading to a complete block of bacterial growth without recovery” value in data set [11] (metronidazole-resistant strain IB136, up to 100 µM, 48 h) is listed as “no dosage of the drug could terminate the proliferation”. Besides, the “MIC values against all bacteria strains” value in data set [13] is on record as “not active”.

On to `CC(=O)OC[C@H]1O[C@@H]([S-])[C@H](OC(C)=O)[C@@H](OC(C)=O)[C@@H]1OC(C)=O.CCP(CC)CC.[Au+]` [Auranofin, reference compound], for which the IC50 in [16] amounted to 0.21 ± 0.03 µM; in data set [7] it was 10.5 ± 4.8 µM; in data set [8], 4.2 ± 0.6 µM; in data set [9], 1.2 ± 0.3 µM; in data set [14], 2.6 ± 0.1 µM. For the same compound, the MIC in [1] is recorded as below 0.2 µM; in data set [2] (20 h at 37 °C), above 30 µM; in data set [4] it was above 30 µM; in [5], above 30 µM. The “MIC, A. baumannii” value in data set [3] stood at 7.8 ± 7.1 µM. For the same compound, the “MIC, E. faecium” value in data set [6] turned out to be 0.6 ± 0.2 µM. The “activity against Gram-negative strains (in words)” value in data set [13] is “lower active or inactive”. Further, in data set [13], the “activity against Gram-positive strains (in words)” value is “strong activity”.

For `Cn1[c](=[Au][Cl])n(CC(=O)O)c2ccccc21` [Compound 2b], the concentration for half-maximal inhibition (IC50) in data set [16] was 0.364 ± 0.103 µM; in data set [7], above 80 µM; in data set [8], above 100 µM; in [9] it was 65.7 ± 8.2 µM; in [14] it was above 100 µM; in [15], above 60 µM. The “MIC, MRSA” value in data set [1] is 151.4 ± 0.0 µM. Further, the MIC in data set [2] (20 h at 37 °C), in [3], in data set [4] and in data set [6] was above 151.4 µM in each case. Besides, the “MIC, E. coli” value in [5] amounted to 151.4 ± 0.0 µM. Besides, the “antibacterial effect, dosages from 0.2 to 100 µM” value in data set [10] (strain 1296T (Figure S1)), in data set [11] (strain IB136 (Figure S3)) and in data set [12] (strain VPI10463 (Figure S2)) was “inactive” throughout. The “MIC values against all bacteria strains” value in data set [13] is reported as above 100 µM.

Take `CCn1[c]([Au-][Cl])[n+](CC)c2cc(C(=O)O)ccc21` [Compound 1b, Chlorido-(1,3-diethyl-5-carboxybenzimidazol-2-ylidene)gold(I)]: the IC50 in data set [16] was 0.297 ± 0.031 µM; in [7] it was 66.3 ± 8.8 µM; in [8], above 75 µM; in data set [9], 74.6 ± 1.3 µM; in data set [14], above 100 µM; in data set [15] it was above 60 µM. In data set [1], the “MIC, MRSA” value is 142.0 ± 0.0 µM. Further, the MIC in [2] (20 h at 37 °C), in data set [3] and in data set [4] was above 142.0 µM in each case. The “MIC, E. coli” value in [5] came out at 142.0 ± 0.0 µM. Further, the “MIC, E. faecium” value in [6] amounted to 142.0 ± 0.0 µM. The “MIC values against all bacteria strains” value in data set [13] is given as above 100 µM.

Consider `CCOC(=O)Cn1[c]([Au-][Cl])[n+](C)c2ccccc21` [Compound 2a, Chlorido-(1-(2-ethoxy-2-oxoethyl)-3-methylbenzimidazol-2-ylidene)gold(I)], for which the IC50 in [7] was 19.9 ± 5.1 µM; in [8] it was 26.1 ± 3.7 µM; in data set [9] it was 9.6 ± 2.7 µM; in [14], 25.8 ± 4.6 µM; in [15] it was 9 to 26 µM. Further, the “cytotoxicity of 2a relative to 2c (times stronger)” value in data set [15] (in all cases (all cell lines)) is on record as 3–4.
